Assay results: patent US20250179059A1 (The Regents of the University of California, priority 2021, published 2025)
pIC50: −log10 of the molar value. Where two headings read alike, the source gives them in different places.

Key:
[1] = target: T1, human BRD4 bromodomain II (Homo sapiens, UniProt O60885); assay: Bromodomain binding assay (AlphaScreen), BRD4 BDII; conditions: AlphaScreen assay, read-out: BRD4 BDII IC50
T1 construct: human BRD4 bromodomain II [based on Genbank NM_058243, residues 349-460]; host or cells: E. coli
Outline: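 Compounds (10-point, 3-fold series) were preincubated 30 min at room temperature with E. coli-expressed N-terminal His6-tagged BRD4 BDII (residues 349-460) or BDI (residues 44-170) in 50 mM HEPES pH 7.5, 100 mM NaCl, 0.05% CHAPS, 0.1% BSA, 1% DMSO. Displacement of biotinylated tetra-acetylated H4 1-21 peptide was read by AlphaScreen; IC50 from curve fitting.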

human BRD4 bromodomain I = target: T2, human BRD4 bromodomain I (Homo sapiens, UniProt O60885); assay: Bromodomain binding assay (AlphaScreen), BRD4 BDI; conditions: Table C1
T2 construct: human BRD4 bromodomain I [residues 44-170]; host or cells: E. coli
Description: Bromodomain Binding Assay
The bromodomain binding assay utilizes AlphaScreen technology. Compounds compete with a biotinylated peptide ligand (from histone H4: aa 1-21, K5/K8/K12/K16Ac-biotin) for binding to a hexahistidine (His6)-tagged bromodomain. Peptide binding is detected by fluorescence signal after singlet oxygen energy transfer from peptide-bound AlphaScreen streptavidin-coated donor beads to His6-tagged bromodomain-bound nickel-chelate acceptor beads (PerkinElmer). Briefly, 8 μL 2.5× bromodomain (E. coli expressed, N-terminal His6-tagged human BRD4 bromodomain II [based on Genbank NM_058243, residues 349-460] or N-terminal His6-tagged human BRD4 bromodomain I [residues 44-170]) in reaction buffer (50 mM HEPES [pH 7.5], 100 mM NaCl, 0.05% CHAPS, 0.1% BSA, 1% DMSO) is added to wells of an assay plate (384-well low flange white, flat bottom, polystyrene microplate, Corning #3572; buffer only is added to some wells as a negative control). A compound concentration series (10 concentrations, 3-fold serial dilutions previously prepared in 100% DMSO, or 100% DMSO only negative control) is delivered to the assay plate with an Echo 550 acoustic liquid handler (Labcyte), followed by plate centrifugation and incubation for 30 minutes at room temperature. Then 4 μL 5× biotinylated peptide ligand is added, followed by plate centrifugation and gentle shaking for 30 minutes at room temperature to mix. After this incubation, 4 μL 5× donor beads are added, and the plate is centrifuged, followed by brief gentle shaking to mix. Finally, 4 μL 5× acceptor beads are added, and the plate is centrifuged, followed by gentle shaking for 60 minutes at room temperature in the dark. AlphaScreen signal (excitation/emission: 680 nm/520-620 nm) is detected with an EnSpire multimode plate reader (PerkinElmer). Percentage peptide binding is plotted as a function of concentration, and curve fitting is used to determine competitive compound binding ICsos.

[2] = system: human SKM-1 acute myeloid leukemia cells; assay: SKM-1 antiproliferation cell-based assay (ATPlite); conditions: Homo sapiens, SKM-1, 96 h, SKM-1 antiproliferation assay, 4 days, Table C2
Outline: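 Log-phase cells in RPMI 1640/15% FBS were seeded at 34722 cells/mL and exposed for 4 days to nine-concentration DMSO serial dilutions in triplicate. Viability was read as ATP luminescence (ATPlite 1step), and IC50 values came from variable-slope non-linear regression.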

pIC50 ([1]; Table C1)	pIC50 ([1]; Table C2)	pIC50 (human BRD4 bromodomain I)	GI50 [2] [nM]	Compound
7.00 to 8.00	7.00 to 8.00	< 7.00	–	CC(=O)Nc1ccc(-c2cccc(-c3cc(N4CCNCC4)no3)c2O)cc1 [Example 3, N-(2′-Hydroxy-3′-(3-(piperazin-1-yl)isoxazol-5-yl)-[1,1′-biphenyl]-4-yl)acetamide]
7.00 to 8.00	7.00 to 8.00	< 7.00	–	CC(=O)Nc1ccc(-c2cccc(-c3cc(N4CCN(C)CC4)no3)c2O)cc1 [Example 6, N-(2′-Hydroxy-3′-(3-(4-methylpiperazin-1-yl)isoxazol-5-yl)-[1,1′-biphenyl]-4-yl)acetamide]
7.00 to 8.00	7.00 to 8.00	< 7.00	–	CC(=O)Nc1ccc(-c2cccc(-c3cccc(N4CCOCC4)c3)c2O)cc1F [Example 95, N-(3-Fluoro-2′-hydroxy-3″-morpholino-[1,1′:3′,1″-terphenyl]-4-yl)acetamide]
8.00 to 9.00	8.00 to 9.00	< 7.00	300 to 3000	CC(=O)Nc1ccc(-c2cccc(-c3cccc(N4CCNCC4)c3)c2O)cc1F [Example 109, N-(3-Fluoro-2′-hydroxy-3″-(piperazin-1-yl)-[1,1′:3′,1″-terphenyl]-4-yl)acetamide]
8.00 to 9.00	8.00 to 9.00	< 7.00	30 to 300	CC(=O)Nc1ccc(-c2cccc(-c3ccnc(N4CCNCC4)c3)c2O)cc1F [Example 163, N-(3-fluoro-2′-hydroxy-3′-(2-(piperazin-1-yl)pyridin-4-yl)-[1,1′-biphenyl]-4-yl)acetamide]
8.00 to 9.00	8.00 to 9.00	< 7.00	–	CC(=O)Nc1ccc(-c2cccc(-c3cccc(N4CCNCC4)c3)c2O)cc1Cl [Example 171, N-(3-chloro-2′-hydroxy-3″-(piperazin-1-yl)-[1,1′:3′,1″-terphenyl]-4-yl)acetamide]
8.00 to 9.00	8.00 to 9.00	< 7.00	30 to 300	CN1CCN(c2ccc(-c3cccc(-c4ccnc(N5CCNCC5)c4)c3O)cc2Cl)C1=O [Example 245, 1-(3-Chloro-2′-hydroxy-3′-(2-(piperazin-1-yl)pyridin-4-yl)-[1,1′-biphenyl]-4-yl)-3-methylimidazolidin-2-one]
8.00 to 9.00	8.00 to 9.00	< 7.00	30 to 300	CN1CCN(c2ccc(-c3cc(F)cc(-c4ccnc(N5CCNCC5)c4)c3O)cc2Cl)C1=O [Example 297, 1-(3-chloro-5′-fluoro-2′-hydroxy-3′-(2-(piperazin-1-yl)pyridin-4-yl)-[1,1′-biphenyl]-4-yl)-3-methylimidazolidin-2-one]
8.00 to 9.00	8.00 to 9.00	< 7.00	0.3 to 30	Cn1ccn(-c2ccc(-c3cc(F)cc(-c4ccnc(N5CCNCC5)c4)c3O)cc2Cl)c1=O [Example 365, 1-(3-chloro-5′-fluoro-2′-hydroxy-3′-(2-(piperazin-1-yl)pyridin-4-yl)-[1,1′-biphenyl]-4-yl)-3-methyl-1H-imidazol-2(3H)-one]
9.00 to 11.00	9.00 to 11.00	< 7.00	0.3 to 30	C[C@@H]1CN(c2cc(-c3cc(F)cc(-c4ccc(-n5ccn(C)c5=O)c(Cl)c4)c3O)ccn2)CCN1 [Example 413, (R)-1-(3-chloro-5′-fluoro-2′-hydroxy-3′-(2-(3-methylpiperazin-1-yl)pyridin-4-yl)-[1,1′-biphenyl]-4-yl)-3-methyl-1H-imidazol-2(3H)-one]
